Target: T1, human M4 muscarinic acetylcholine receptor (Homo sapiens, UniProt P08173)
T1 construct: expressed in transfected cells
T1 sequence (P08173 1-479): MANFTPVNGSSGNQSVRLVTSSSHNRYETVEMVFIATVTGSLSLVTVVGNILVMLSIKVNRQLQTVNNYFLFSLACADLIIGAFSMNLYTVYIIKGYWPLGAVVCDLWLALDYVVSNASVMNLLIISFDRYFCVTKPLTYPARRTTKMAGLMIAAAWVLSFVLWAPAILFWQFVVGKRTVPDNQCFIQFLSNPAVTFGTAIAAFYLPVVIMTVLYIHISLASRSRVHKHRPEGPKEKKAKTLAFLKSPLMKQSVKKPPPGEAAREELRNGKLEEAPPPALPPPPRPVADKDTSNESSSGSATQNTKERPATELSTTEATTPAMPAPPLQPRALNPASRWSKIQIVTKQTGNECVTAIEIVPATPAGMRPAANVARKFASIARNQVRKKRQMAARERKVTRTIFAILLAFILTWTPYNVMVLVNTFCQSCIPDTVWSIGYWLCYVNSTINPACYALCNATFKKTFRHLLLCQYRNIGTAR
Assay: human FLIPR-based M4 PAM assay (CHO-K1 cells with human M4 receptor and Gαqi5, calcium dye fluorescence)
Format: cell-based
Conditions: inflection point of 4 parameter logistic fit; acetylcholine added at 20% of maximum response; read-out: M4PAM IP
Protocol: In a typical experiment the M4 muscarinic acetylcholine receptor modulating activity of the compounds of the present invention was determined in accordance with the following experimental method. CHO-K1 cells stably transfected with human M4 receptor and chimeric G-protein Gαqi5 (Coward P, et al., Analytical Biochemistry, 270:242-248 (1999)) are thawed from liquid N2 storage, resuspended in growth medium, plated in black, clear bottom 384 well plates, and incubated 16-20 hours at 37° C., 5% CO2. On the day of assay, growth medium is removed, the cells are washed 2 times with wash buffer, and cells are incubated in dye loading buffer at 37° C., 5% CO2 for ˜1 hour. Following dye loading the cell plates are placed in a FLIPR Tetra instrument and while monitoring dye fluorescence (excitation […]), 10 uL of test substance at increasing concentrations is added, and fluorescence values are recorded for 4 min. Next, 10 uL of acetylcholine is added (final concentration calculated so as to achieve 20% of the maximum acetycholine response), and the fluorescence reading is continued for 3.5 min. In some cases, a third addition of acetylcholine (final concentration calculated to achieve 70% of the maximal acetylcholine response) is performed. The resulting dose response curves are fit to a 4 parameter logistic equation and the final result is determined as the inflection point (IP) of the curve
CHO-K1 cells stably transfected with human M4 receptor and chimeric G-protein Gαqi5 are thawed from liquid N2 storage, resuspended in growth medium, plated in black, clear bottom 384 well plates, and incubated 16-20 hours at 37° C., 5% CO2.
On the day of assay, growth medium is removed, the cells are washed 2 times with wash buffer, and cells are incubated in dye loading buffer at 37° C., 5% CO2 for ˜1 h. Following dye loading the cell plates are placed in a FLIPR Tetra instrument and while monitoring dye fluorescence ([…]), 10 uL of test substance at increasing concentrations is added, and fluorescence values are recorded for 4 min. Next, 10 uL of acetylcholine is added (final concentration calculated so as to achieve 20% of the maximum acetycholine response), and the fluorescence reading is continued for 3.5 min. In some cases, a third addition of acetylcholine (final concentration calculated to achieve 70% of the maximal acetylcholine response) is performed.

Compound	EC50 [nM]
CC1(Cn2cc(-c3ccc(C#N)nc3-c3ccn4ccnc4c3)cn2)CCOC1 (racemic) [Example 108, 6-(imidazo[1,2-a]pyridin-7-yl)-5-(1-((3-methyltetrahydrofuran-3-yl)methyl)-1H-pyrazol-4-yl)picolinonitrile]	95.9
N#Cc1ccc(-c2cnn(CC(F)(F)C3CC3)c2)c(-c2ccn3ccnc3c2)n1 [Example 1, 5-(1-(2-cyclopropyl-2,2-difluoroethyl)-1H-pyrazol-4-yl)-6-(imidazo[1,2-a]pyridin-7-yl)picolinonitrile]	58.6
Cc1ccc(-c2cnn(CC3(C)CCCCC3)c2)c(-c2ccc3cn(C)nc3c2)n1 [Example 2, 2-methyl-6-(6-methyl-3-{1-[(1-methylcyclohexyl)methyl]-1H-pyrazol-4-yl}pyridin-2-yl)-2H-indazole]	76
Cc1ccc(-c2cnn(CC3(C)CCCCC3)c2)c(-c2ccc3cn[nH]c3c2)n1 [Example 3, 6-(6-methyl-3-{1-[(1-methylcyclohexyl)methyl]-1H-pyrazol-4-yl}pyridin-2-yl)-1H-indazole]	66.6
Cc1ccc(-c2cnn(CC3(C)CCCCC3)c2)c(-c2ccc3c(C)n[nH]c3c2)n1 [Example 4, 3-methyl-6-(6-methyl-3-{1-[(1-methylcyclohexyl)methyl]-1H-pyrazol-4-yl}pyridin-2-yl)-1H-indazole]	69.9
Cc1ccc(-c2cnn(CC3(C)CCCCC3)c2)c(-c2cnc3c(c2)ncn3C)n1 [Example 5, 3-methyl-6-(6-methyl-3-{1-[(1-methylcyclohexyl)methyl]-1H-pyrazol-4-yl}pyridin-2-yl)-3H-imidazo[4,5-b]pyridine]	38.8
Cc1ccc(-c2cnn(CC34CC(C3)C4)c2)c(-c2ccc3c(c2)C(=O)N(C)C3)n1 [Example 7, 6-{3-[1-(bicyclo[1.1.1]pent-1-ylmethyl)-1H-pyrazol-4-yl]-6-methylpyridin-2-yl}-2-methyl-2,3-dihydro-1H-isoindol-1-one]	17.6
Cc1ccc(-c2cnn(CC34CC(C3)C4)c2)c(-c2ccc3c(c2)C(=O)NC3)n1 [Example 8, 6-{3-[1-(bicyclo[1.1.1]pent-1-ylmethyl)-1H-pyrazol-4-yl]-6-methylpyridin-2-yl}-2,3-dihydro-1H-isoindol-1-one]	26.6
Cc1ccc(-c2cnn(CCC(C)(C)F)c2)c(-c2ccc3c(c2)C(=O)N(C)C3)n1 [Example 9, 6-{3-[1-(3-fluoro-3-methylbutyl)-1H-pyrazol-4-yl]-6-methylpyridin-2-yl}-2-methyl-2,3-dihydro-1H-isoindol-1-one]	80.8
Cc1ccc(-c2cnn(CCC(C)(C)F)c2)c(-c2ccc3c(c2)C(=O)NC3)n1 [Example 10, 6-{3-[1-(3-fluoro-3-methylbutyl)-1H-pyrazol-4-yl]-6-methylpyridin-2-yl}-2,3-dihydro-1H-isoindol-1-one]	130
Cc1ccc(-c2cnn(Cc3ccccc3)c2)c(-c2ccc3c(c2)C(=O)N(CC2CC2)C3)n1 [Example 11, 6-[3-(1-benzyl-1H-pyrazol-4-yl)-6-methylpyridin-2-yl]-2-(cyclopropylmethyl)-2,3-dihydro-1H-isoindol-1-one]	136
Cc1ccc(-c2cnn(CC34CCC(CC3)CC4)c2)c(-c2ccc3c(c2)C(=O)N(CC2CC2)C3)n1 [Example 12, 6-{3-[1-(bicyclo[2.2.2]oct-1-ylmethyl)-1H-pyrazol-4-yl]-6-methylpyridin-2-yl}-2-(cyclopropylmethyl)-2,3-dihydro-1H-isoindol-1-one]	24.5
Cc1ccc(-c2cnn(Cc3ccccc3F)c2)c(-c2ccc3c(c2)C(=O)N(C2CC2)C3)n1 [Example 13, 2-cyclopropyl-6-{3-[1-(2-fluorobenzyl)-1H-pyrazol-4-yl]-6-methylpyridin-2-yl}-2,3-dihydro-1H-isoindol-1-one]	126
Cc1ccc(-c2cnn(CC3CCC(F)(F)CC3)c2)c(-c2ccc3c(c2)C(=O)N(CC2CC2)C3)n1 [Example 14, 2-(cyclopropylmethyl)-6-(3-{1-[(4,4-difluorocyclohexyl)methyl]-1H-pyrazol-4-yl}-6-methylpyridin-2-yl)-2,3-dihydro-1H-isoindol-1-one]	48.8
Cc1ccc(-c2cnn(CC3(C)CCC(F)(F)CC3)c2)c(-c2ccc3c(c2)C(=O)N(C)C3)n1 [Example 15, 6-(3-{1-[(4,4-difluoro-1-methylcyclohexyl)methyl]-1H-pyrazol-4-yl}-6-methylpyridin-2-yl)-2-methyl-2,3-dihydro-1H-isoindol-1-one]	26.5
Cc1cn2ccc(-c3nc(C#N)ccc3-c3cnn(CC(C)(C)CC(F)(F)F)c3)cc2n1 [Example 16, 6-(2-methylimidazo[1,2-a]pyridin-7-yl)-5-[1-(4,4,4-trifluoro-2,2-dimethylbutyl)-1H-pyrazol-4-yl]pyridine-2-carbonitrile]	61.7
Cc1cn2ccc(-c3ncccc3-c3cnn(CC4(CC(F)F)CC4)c3)cc2n1 [Example 17, 7-[3-(1-{[1-(2,2-difluoroethyl)cyclo-propyl]methyl}-1H-pyrazol-4-yl)pyridin-2-yl]-2-methylimidazo[1,2-a]pyridine]	277
CCC(F)(F)Cn1cc(-c2ccc(C#N)nc2-c2ccn3ccnc3c2)cn1 [Example 18, 5-[1-(2,2-difluorobutyl)-1H-pyrazol-4-yl]-6-imidazo[1,2-a]pyridin-7-ylpyridine-2-carbonitrile]	61.4
N#Cc1ccc(-c2cnn(CC3(CF)CC3)c2)c(-c2ccn3ccnc3c2)n1 [Example 19, 5-(1-{[1-(fluoromethyl)cyclo-propyl]methyl}-1H-pyrazol-4-yl)-6-imidazo[1,2-a]pyridin-7-ylpyridine-2-carbonitrile]	49.9
Cc1cn2ccc(-c3nc(C#N)ccc3-c3cnn(CC(C)(F)F)c3)cc2n1 [Example 20, 5-[1-(2,2-difluoropropyl)-1H-pyrazol-4-yl]-6-(2-methylimidazo[1,2-a]pyridin-7-yl)pyridine-2-carbonitrile]	144
CC(C)C(F)(F)Cn1cc(-c2ccc(C#N)nc2-c2ccn3ccnc3c2)cn1 [Example 21, 5-[1-(2,2-difluoro-3-methylbutyl)-1H-pyrazol-4-yl]-6-imidazo[1,2-a]pyridin-7-ylpyridine-2-carbonitrile]	30.7
Cc1cn2ccc(-c3nc(C#N)ccc3-c3cnn(CC(F)(F)C(F)F)c3)cc2n1 [Example 22, 6-(2-methylimidazo[1,2-a]pyridin-7-yl)-5-[1-(2,2,3,3-tetrafluoropropyl)-1H-pyrazol-4-yl]pyridine-2-carbonitrile]	202
Cc1cn2ccc(-c3nc(C#N)ccc3-c3cnn(CC(F)(F)C(F)(F)C(F)F)c3)cc2n1 [Example 23, 5-[1-(2,2,3,3,4,4-hexafluorobutyl)-1H-pyrazol-4-yl]-6-(2-methylimidazo[1,2-a]pyridin-7-yl)pyridine-2-carbonitrile]	42.3
N#Cc1ccc(-c2cnn(CC(F)(F)C(F)(F)C(F)(F)F)c2)c(-c2ccn3ccnc3c2)n1 [Example 24, 5-[1-(2,2,3,3,4,4,4-heptafluorobutyl)-1H-pyrazol-4-yl]-6-imidazo[1,2-a]pyridin-7-ylpyridine-2-carbonitrile]	89.9
N#Cc1ccc(-c2cnn(C[C@H]3C[C@@H]3C(F)(F)F)c2)c(-c2ccn3ccnc3c2)n1 [Example 25, 6-imidazo[1,2-a]pyridin-7-yl-5-(1-{[(1S,2S)-2-(trifluoromethyl)cyclo-propyl]methyl}-1H-pyrazol-4-yl)pyridine-2-carbonitrile]	78.1
Cc1ccc(-c2cnn(CC(C)(C)C(F)(F)F)c2)c(-c2ccn3ccnc3c2)n1 [Example 26]	25.5
Cc1nc2cc(-c3nc(C#N)ccc3-c3cnn(CCC(C)(F)F)c3)ccc2n1C [Example 27, 5-[1-(3,3-difluorobutyl)-1H-pyrazol-4-yl]-6-(1,2-dimethyl-1H-benzimidazol-5-yl)pyridine-2-carbonitrile]	74

Source: patent US11339156B2, “3-(1H-pyrazol-4-yl)pyridine allosteric modulators of the M4 muscarinic acetylcholine receptor” (Merck Sharp & Dohme Corp., priority 2017, dated 2022)
